Reference: PubChem BioAssay AID248 (DTP/NCI, 2004)
“And” between values parts separate entries of the source, which are not always exact repeats. Equal entries are not always repeated. Toxic doses and inconclusive results are not listed.

Tested on: L1210 leukemia ip in BDF1 mice, survival T/C
Experiment: NCI In Vivo Anticancer Drug Screen. Data for tumor model L1210 Leukemia (intraperitoneal) in B6D2F1 (BDF1) mice
Conditions: endpoint: mean survival time, higher = longer survival
Method in brief: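 Value reflects the ratio of survival in compound-treated mice to survival in vehicle-treated controls, with both groups carrying the same transplanted tumor.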

[1] = dose: 50.0 mg/kg/injection, schedule: Q01DX001 (ip), vehicle: carboxymethylcellulose (CMC)
[2] = dose: 100.0 mg/kg/injection, schedule: Q01DX001 (ip), vehicle: carboxymethylcellulose (CMC)
[3] = dose: 200.0 mg/kg/injection, schedule: Q01DX001 (ip), vehicle: carboxymethylcellulose (CMC)
[4] = dose: 400.0 mg/kg/injection, schedule: Q01DX001 (ip), vehicle: carboxymethylcellulose (CMC)
[5] = dose: 100.0 mg/kg/injection, schedule: Q01DX001 (ip), vehicle: saline
[6] = dose: 200.0 mg/kg/injection, schedule: Q01DX001 (ip), vehicle: saline
[7] = dose: 400.0 mg/kg/injection, schedule: Q01DX001 (ip), vehicle: saline

In the case of `Nc1nc(N)c2cc(CNc3ccc(C(=O)NC(CC(=O)O)C(=O)O)cc3)ccc2n1` (configuration not stated), the T/C (dose: 0.07 mg/kg/injection, schedule: Q01DX009 (ip), vehicle: saline) is reported as 97 % of control and 100 % of control, the T/C (dose: 0.14 mg/kg/injection, schedule: Q01DX009 (ip), vehicle: saline) is reported as 110 % of control and 120 % of control and the T/C (dose: 0.25 mg/kg/injection, schedule: Q01DX009 (sc), vehicle: saline) is reported as 110 % of control. The T/C (dose: 0.5 mg/kg/injection, schedule: Q01DX009 (sc), vehicle: saline) was 120 % of control, the T/C (dose: 0.56 mg/kg/injection, schedule: Q01DX009 (ip), vehicle: saline) was 164 % of control and the T/C (dose: 0.67 mg/kg/injection, schedule: Q01DX009 (ip), vehicle: saline) was 157 % of control and 189 % of control. The T/C (dose: 1.0 mg/kg/injection, schedule: Q01DX009 (ip), vehicle: saline) was 178 % of control, the T/C (dose: 1.0 mg/kg/injection, schedule: Q01DX009 (sc), vehicle: saline) was 158 % of control and the T/C (dose: 1.13 mg/kg/injection, schedule: Q01DX009 (ip), vehicle: saline) was 153 % of control and 193 % of control and 195 % of control. The T/C (dose: 1.25 mg/kg/injection, schedule: Q01DX009 (ip), vehicle: saline) was 173 % of control and 177 % of control, the T/C (dose: 2.0 mg/kg/injection, schedule: Q01DX001 (ip), vehicle: saline) was 118 % of control and the T/C (dose: 2.0 mg/kg/injection, schedule: Q01DX001 (iv), vehicle: saline) was 117 % of control. The T/C (dose: 2.0 mg/kg/injection, schedule: Q01DX001 (sc), vehicle: saline) was 112 % of control, the T/C (dose: 2.0 mg/kg/injection, schedule: Q01DX009 (ip), vehicle: saline) was 154 % of control and the T/C (dose: 2.0 mg/kg/injection, schedule: Q01DX009 (oral), vehicle: saline) was 110 % of control. For the same compound, the T/C (dose: 2.0 mg/kg/injection, schedule: Q01DX009 (sc), vehicle: saline) was 188 % of control, the T/C (dose: 2.0 mg/kg/injection, schedule: Q08DX002 (ip), vehicle: saline) was 118 % of control and the T/C (dose: 2.0 mg/kg/injection, schedule: Q## X008 (ip), vehicle: saline) was 123 % of control. For the same compound, the T/C (dose: 2.0 mg/kg/injection, schedule: Q## X024 (ip), vehicle: saline) was 154 % of control, the T/C (dose: 2.25 mg/kg/injection, schedule: Q01DX009 (ip), vehicle: saline) was 174 % of control and 177 % of control and the T/C (dose: 4.0 mg/kg/injection, schedule: Q01DX001 (ip), vehicle: saline) was 119 % of control. The T/C (dose: 4.0 mg/kg/injection, schedule: Q01DX001 (iv), vehicle: saline) was 119 % of control, the T/C (dose: 4.0 mg/kg/injection, schedule: Q01DX001 (sc), vehicle: saline) was 119 % of control and the T/C (dose: 4.0 mg/kg/injection, schedule: Q01DX009 (oral), vehicle: saline) was 110 % of control. For the same compound, the T/C (dose: 4.0 mg/kg/injection, schedule: Q01DX009 (sc), vehicle: saline) was 120 % of control, the T/C (dose: 4.0 mg/kg/injection, schedule: Q## X003 (ip), vehicle: saline) was 152 % of control and the T/C (dose: 4.0 mg/kg/injection, schedule: Q## X024 (ip), vehicle: saline) was 185 % of control. For the same compound, the T/C (dose: 4.5 mg/kg/injection, schedule: Q01DX009 (ip), vehicle: saline) was 95 % of control and 117 % of control, the T/C (dose: 5.0 mg/kg/injection, schedule: Q01DX009 (ip), vehicle: saline) was 96 % of control and 101 % of control and 91 % of control and the T/C (dose: 8.0 mg/kg/injection, schedule: Q01DX001 (ip), vehicle: saline) was 123 % of control. The T/C (dose: 8.0 mg/kg/injection, schedule: Q01DX001 (iv), vehicle: saline) was 118 % of control, the T/C (dose: 8.0 mg/kg/injection, schedule: Q01DX009 (oral), vehicle: saline) was 109 % of control and the T/C (dose: 8.0 mg/kg/injection, schedule: Q03HX016 (ip), vehicle: saline) was 150 % of control. The T/C (dose: 8.0 mg/kg/injection, schedule: Q## X003 (ip), vehicle: saline) was 158 % of control, the T/C (dose: 8.0 mg/kg/injection, schedule: Q## X024 (ip), vehicle: saline) was 194 % of control and the T/C (dose: 9.0 mg/kg/injection, schedule: Q01DX009 (ip), vehicle: saline) was 87 % of control and 89 % of control. The T/C (dose: 10.0 mg/kg/injection, schedule: Q01DX009 (ip), vehicle: saline) was 89 % of control and 91 % of control, the T/C (dose: 16.0 mg/kg/injection, schedule: Q01DX001 (iv), vehicle: saline) was 122 % of control and the T/C (dose: 16.0 mg/kg/injection, schedule: Q01DX001 (oral), vehicle: saline) was 102 % of control. For the same compound, the T/C (dose: 16.0 mg/kg/injection, schedule: Q01DX009 (oral), vehicle: saline) was 112 % of control, the T/C (dose: 16.0 mg/kg/injection, schedule: Q03HX016 (ip), vehicle: saline) was 165 % of control and the T/C (dose: 16.0 mg/kg/injection, schedule: Q08DX002 (ip), vehicle: saline) was 169 % of control. The T/C (dose: 16.0 mg/kg/injection, schedule: Q## X024 (ip), vehicle: saline) was 206 % of control, the T/C (dose: 20.0 mg/kg/injection, schedule: Q01DX001 (ip), vehicle: saline) was 108 % of control and the T/C (dose: 32.0 mg/kg/injection, schedule: Q01DX001 (ip), vehicle: saline) was 152 % of control. For the same compound, the T/C (dose: 32.0 mg/kg/injection, schedule: Q01DX001 (oral), vehicle: saline) was 103 % of control, the T/C (dose: 32.0 mg/kg/injection, schedule: Q03HX016 (ip), vehicle: saline) was 197 % of control and the T/C (dose: 32.0 mg/kg/injection, schedule: Q08DX002 (ip), vehicle: saline) was 159 % of control. The T/C (dose: 32.0 mg/kg/injection, schedule: Q## X008 (ip), vehicle: saline) was 150 % of control, the T/C (dose: 64.0 mg/kg/injection, schedule: Q01DX001 (oral), vehicle: saline) was 101 % of control and the T/C (dose: 128.0 mg/kg/injection, schedule: Q01DX001 (oral), vehicle: saline) was 101 % of control.
With `CCSCCCCO` the T/C (dose: 75.0 mg/kg/injection, schedule: Q01DX001 (ip), vehicle: saline) was 101 % of control, the T/C (dose: 75.0 mg/kg/injection, schedule: Q01DX009 (ip), vehicle: saline) was 102 % of control and the T/C (dose: 150.0 mg/kg/injection, schedule: Q01DX001 (ip), vehicle: saline) was 101 % of control. The T/C (dose: 150.0 mg/kg/injection, schedule: Q01DX009 (ip), vehicle: saline) was 100 % of control and the T/C (dose: 300.0 mg/kg/injection, schedule: Q01DX001 (ip), vehicle: saline) was 97 % of control.
With `CN(C(=O)c1ccc([N+](=O)[O-])cc1)c1ccccc1` the T/C [1] was 100 % of control, the T/C [2] was 118 % of control and the T/C (dose: 100.0 mg/kg/injection, schedule: Q01DX009 (ip), vehicle: Klucel (hydroxypropylcellulose) (HPC)) was 103 % of control. For the same compound, the T/C (dose: 100.0 mg/kg/injection, schedule: Q04DX002 (ip), vehicle: Klucel (hydroxypropylcellulose) (HPC)) was 93 % of control, the T/C [3] was 108 % of control and the T/C (dose: 200.0 mg/kg/injection, schedule: Q01DX009 (ip), vehicle: Klucel (hydroxypropylcellulose) (HPC)) was 96 % of control. For the same compound, the T/C (dose: 200.0 mg/kg/injection, schedule: Q04DX002 (ip), vehicle: Klucel (hydroxypropylcellulose) (HPC)) was 90 % of control, the T/C [4] was 96 % of control and the T/C (dose: 400.0 mg/kg/injection, schedule: Q01DX009 (ip), vehicle: Klucel (hydroxypropylcellulose) (HPC)) was 100 % of control. The T/C (dose: 400.0 mg/kg/injection, schedule: Q04DX002 (ip), vehicle: Klucel (hydroxypropylcellulose) (HPC)) was 123 % of control.
`N#Cc1ccc(CC(O)(c2ccccc2)c2ccccc2)cc1` was tested, and the T/C [1] was 106 % of control, the T/C [2] was 101 % of control and the T/C [3] was 98 % of control. The T/C [4] was 89 % of control.
For `COc1ccc2c(c1)c(CC(=O)O)c(C)n2C(=O)c1ccc(Cl)cc1`, the T/C (dose: 50.0 mg/kg/injection, schedule: Q01DX001 (ip), vehicle: saline) was 88 % of control, the T/C [5] was 95 % of control and the T/C [6] was 95 % of control. For the same compound, the T/C [7] was 93 % of control.
With `CCOC(=O)c1cnc2ccc(OC)cc2c1` the T/C (dose: 50.0 mg/kg/injection, schedule: Q01DX009 (ip), vehicle: saline + alcohol) was 111 % of control, the T/C (dose: 100.0 mg/kg/injection, schedule: Q01DX009 (ip), vehicle: saline + alcohol) was 93 % of control and the T/C (dose: 100.0 mg/kg/injection, schedule: Q04DX003 (ip), vehicle: saline) was 96 % of control. For the same compound, the T/C (dose: 200.0 mg/kg/injection, schedule: Q01DX009 (ip), vehicle: saline + alcohol) was 98 % of control, the T/C (dose: 200.0 mg/kg/injection, schedule: Q04DX003 (ip), vehicle: saline) was 105 % of control and the T/C (dose: 400.0 mg/kg/injection, schedule: Q01DX009 (ip), vehicle: saline + alcohol) was 93 % of control. For the same compound, the T/C (dose: 400.0 mg/kg/injection, schedule: Q04DX003 (ip), vehicle: saline) was 94 % of control.
For `CC(Cl)CN(Cc1c(O)ccc2ccccc12)CC(C)Cl` (configuration not stated), the T/C [2] was 96 % of control, the T/C [3] was 107 % of control and the T/C [4] was 101 % of control.
With `COC1OC(CO)C(O)C(OC)C1NC(C)=O` (configuration not stated) the T/C [5] was 103 % of control, the T/C [6] was 106 % of control and the T/C [7] was 101 % of control.
